# How the values were obtained:
# [1] = system: Candida albicans; experiment: Antifungal activity against fluconazole-resistant Candida albicans NCIM 3446 after 48 hr by broth dilution method; type: functional; conditions: NCIM 3446, 48 h
# [2] = system: Candida albicans; experiment: Antifungal activity against fluconazole-sensitive Candida albicans ATCC 10231 after 48 hr by broth dilution method; type: functional; conditions: ATCC 10231, 48 h
SMILES,MIC [1] [µg/mL],MIC [2] [µg/mL]
COc1ccc(/C=C/C(=O)c2cccs2)cc1OC,20,10
CSc1ccc(/C=C/C(=O)c2ccc(F)cc2)cc1,8,5
CSc1ccc(/C=C/C(=O)c2ccc(-c3ccccc3)cc2)cc1,250,100
CSc1ccc(/C=C/C(=O)c2cccs2)cc1,5,5
CSc1ccc(/C=C/C(=O)c2ccc(Br)s2)cc1,50,40
COc1ccc(/C=C/C(=O)c2ccc(Br)s2)cc1OC,100,50
O=C(/C=C/c1ccc(-c2ccccc2)cc1)c1cccs1,250,100
O=C(/C=C/c1ccc(-c2ccccc2)cc1)c1ccc(Br)s1,250,100
COc1ccc(/C=C/C(=O)c2cccs2)cc1,20,20
COc1ccc(/C=C/C(=O)c2ccc(Br)s2)cc1,100,50
CSc1ccc(/C=C/C(=O)c2ccc([N+](=O)[O-])cc2)cc1,100,50
CSc1ccc(/C=C/C(=O)c2ccc(Cl)cc2)cc1,20,10
CSc1ccc(/C=C/C(=O)c2cccc(O)c2)cc1,40,20
COc1ccc(C(=O)/C=C/c2ccc(SC)cc2)cc1,20,10
CSc1ccc(/C=C/C(=O)c2ccccc2O)cc1,20,20
CSc1ccc(/C=C/C(=O)c2ccccc2)cc1,40,20
CSc1ccc(/C=C/C(=O)c2ccc(Cl)cc2Cl)cc1,200,50
CSc1ccc(/C=C/C(=O)c2ccc(Br)cc2)cc1,100,40
CSc1ccc(/C=C/C(=O)c2ccc(O)cc2)cc1,40,20
COc1ccc(C(=O)/C=C/c2ccc(OC)c(OC)c2)cc1,10,20
OC(Cn1cncn1)(Cn1cncn1)c1ccc(F)cc1F [FLUCONAZOLE],100,20

# Reference: ChEMBL document CHEMBL3046370, “Synthesis and biological evaluation of , -unsaturated ketone as potential antifungal agents” (2009)
